Patent publication US20240174662A1, “SMALL MOLECULE INHIBITORS OF SALT INDUCIBLE KINASES” (Janssen Biotech, Inc., priority 2021, published 2024)
Several values for one entry are separate records, joined by “and”; a condition that tells them apart may be missing. Equal entries are not always repeated.

Target: SIK2 (Homo sapiens (Human), UniProt Q9H0K1)
Test: SIK2 Enzymatic Assay Version 2 (High ATP)
Assay type: biochemical
Details: 3 mM ATP and 200 μM HDAC5tide final, ADP-Glo Max luminescence
How it was run: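 Luminescent ADP-Glo Max read-out: depletion reagent 2 h, then detection reagent 1 h. Before the reaction, compounds were incubated 30 min with enzyme added at 6 nM (twice final concentration), with all steps at room temperature.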

SIK2, sequence (Q9H0K1 whole entry, species assumed): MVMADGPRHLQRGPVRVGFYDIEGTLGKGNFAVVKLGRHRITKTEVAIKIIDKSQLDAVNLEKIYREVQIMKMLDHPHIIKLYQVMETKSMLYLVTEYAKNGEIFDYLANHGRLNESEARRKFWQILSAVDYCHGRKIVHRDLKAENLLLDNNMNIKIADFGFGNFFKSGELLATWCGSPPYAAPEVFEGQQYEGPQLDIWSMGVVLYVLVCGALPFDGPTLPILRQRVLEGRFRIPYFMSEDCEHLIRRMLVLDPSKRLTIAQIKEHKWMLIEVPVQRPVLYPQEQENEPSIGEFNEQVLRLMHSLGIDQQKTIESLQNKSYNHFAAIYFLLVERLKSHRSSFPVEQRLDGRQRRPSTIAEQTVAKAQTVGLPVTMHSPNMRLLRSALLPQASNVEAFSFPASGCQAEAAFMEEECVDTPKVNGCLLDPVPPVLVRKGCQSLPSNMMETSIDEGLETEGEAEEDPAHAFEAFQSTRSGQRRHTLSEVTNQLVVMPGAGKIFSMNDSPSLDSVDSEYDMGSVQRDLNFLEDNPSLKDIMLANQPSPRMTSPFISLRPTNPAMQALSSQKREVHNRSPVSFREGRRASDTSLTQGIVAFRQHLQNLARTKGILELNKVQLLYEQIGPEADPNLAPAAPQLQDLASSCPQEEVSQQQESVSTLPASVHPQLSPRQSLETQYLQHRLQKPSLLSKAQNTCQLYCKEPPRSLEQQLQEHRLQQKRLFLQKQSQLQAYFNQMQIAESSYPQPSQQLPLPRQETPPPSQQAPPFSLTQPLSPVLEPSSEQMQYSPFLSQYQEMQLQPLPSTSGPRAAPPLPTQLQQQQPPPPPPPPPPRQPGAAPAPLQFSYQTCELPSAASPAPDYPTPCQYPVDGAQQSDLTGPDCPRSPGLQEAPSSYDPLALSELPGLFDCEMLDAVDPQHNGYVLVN

| IC50 | SMILES |
| --- | --- |
| 8.9 nM | CN1CC[C@@H]1COc1cnn(C)c1-c1ccn2nc(Nc3cnc(C(=O)NCC(C)(C)O)cn3)cc2c1 [Example 132, N-(2-hydroxy-2-methyl-propyl)-5-[[5-[2-methyl-4-[[(2R)-1-methylazetidin-2-yl]methoxy]pyrazol-3-yl]pyrazolo[1,5-a]pyridin-2-yl]amino]pyrazine-2-carboxamide] |
| 7.1 nM | CNC(=O)c1cnc(Nc2cc3cc(-c4c(OC[C@H]5CCN5C)cnn4C)ccn3n2)cn1 [Example 133, N-methyl-5-[[5-[2-methyl-4-[[(2R)-1-methylazetidin-2-yl]methoxy]pyrazol-3-yl]pyrazolo[1,5-a]pyridin-2-yl]amino]pyrazine-2-carboxamide] |
| 2.8 nM | Cc1cc(Nc2cc3cc(-c4c(OC[C@@H]5CCN5C)cnn4C)ccn3n2)nc(C2CC2)n1 [Example 134, N-(2-cyclopropyl-6-methyl-pyrimidin-4-yl)-5-[2-methyl-4-[[(2S)-1-methylazetidin-2-yl]methoxy]pyrazol-3-yl]pyrazolo[1,5-a]pyridin-2-amine] |
| 5.8 nM | CN1CC[C@@H]1COc1cnn(C)c1-c1ccn2nc(Nc3ccc(C(=O)NCCC#N)cn3)cc2c1 [Example 135, N-(2-cyanoethyl)-6-[[5-[2-methyl-4-[[(2R)-1-methylazetidin-2-yl]methoxy]pyrazol-3-yl]pyrazolo[1,5-a]pyridin-2-yl]amino]pyridine-3-carboxamide] |
| 2.3 nM | Cc1cc(Nc2cc3cc(-c4c(OC[C@H]5CCN5C)cnn4C)ccn3n2)nc2c1CCC2 [Example 136, N-(4-methyl-6,7-dihydro-5H-cyclopenta[b]pyridin-2-yl)-5-[2-methyl-4-[[(2R)-1-methylazetidin-2-yl]methoxy]pyrazol-3-yl]pyrazolo[1,5-a]pyridin-2-amine] |
| 16.9 nM | CCc1cc(Nc2cc3cc(-c4c(OC[C@@H]5CCN5C)cnn4C)ccn3n2)nc(C)n1 [Example 137, N-(6-ethyl-2-methyl-pyrimidin-4-yl)-5-[2-methyl-4-[[(2S)-1-methylazetidin-2-yl]methoxy]pyrazol-3-yl]pyrazolo[1,5-a]pyridin-2-amine] |
| 40.3 nM | Cc1ncc(Nc2cc3cc(-c4c(OC[C@@H]5CCN5C)cnn4C)ccn3n2)nc1C [Example 138, N-(5,6-dimethylpyrazin-2-yl)-5-[2-methyl-4-[[(2S)-1-methylazetidin-2-yl]methoxy]pyrazol-3-yl]pyrazolo[1,5-a]pyridin-2-amine] |
| 19.7 nM | Cc1cc(Nc2cc3cc(-c4c(OC[C@@H]5CCN5C)cnn4C)ccn3n2)nc(C)n1 [Example 139, N-(2,6-dimethylpyrimidin-4-yl)-5-[2-methyl-4-[[(2S)-1-methylazetidin-2-yl]methoxy]pyrazol-3-yl]pyrazolo[1,5-a]pyridin-2-amine] |
| 1.2 nM | Cc1cc(Nc2cc3cc(-c4c(OC[C@H]5CCN5C)cnn4C(F)F)ccn3n2)nc(C)n1 [Example 140, 5-[2-(difluoromethyl)-4-[[(2R)-1-methylazetidin-2-yl]methoxy]pyrazol-3-yl]-N-(2,6-dimethylpyrimidin-4-yl)pyrazolo[1,5-a]pyridin-2-amine] |
| 1 nM | Cc1cnnc(Nc2cc3cc(-c4c(OC[C@H]5CCN5C)cnn4C)ccn3n2)c1 [Example 141, 5-[2-methyl-4-[[(2R)-1-methylazetidin-2-yl]methoxy]pyrazol-3-yl]-N-(5-methylpyridazin-3-yl)pyrazolo[1,5-a]pyridin-2-amine] |
| 2.8 nM | CN1CC[C@@H]1COc1cnn(C)c1-c1ccn2nc(Nc3cnn(C)c3)cc2c1 [Example 142, 5-[2-methyl-4-[[(2R)-1-methylazetidin-2-yl]methoxy]pyrazol-3-yl]-N-(1-methylpyrazol-4-yl)pyrazolo[1,5-a]pyridin-2-amine] |
| 2.4 nM | CN1CC[C@@H]1COc1cnn(C)c1-c1ccn2nc(Nc3ccc(=O)n(C)n3)cc2c1 [Example 143, 2-methyl-6-[[5-[2-methyl-4-[[(2R)-1-methylazetidin-2-yl]methoxy]pyrazol-3-yl]pyrazolo[1,5-a]pyridin-2-yl]amino]pyridazin-3-one] |
| < 0.847 nM | Cc1cc(Nc2cc3cc(-c4c(OC[C@H]5CCN5C)cnn4C)ccn3n2)nc(C2CC2)n1 [Example 144, N-(2-cyclopropyl-6-methyl-pyrimidin-4-yl)-5-[2-methyl-4-[[(2R)-1-methylazetidin-2-yl]methoxy]pyrazol-3-yl]pyrazolo[1,5-a]pyridin-2-amine] |
| < 0.847 nM | CCc1cc(Nc2cc3cc(-c4c(OC[C@H]5CCN5C)cnn4C)ccn3n2)nc(C)n1 [Example 145, N-(6-ethyl-2-methyl-pyrimidin-4-yl)-5-[2-methyl-4-[[(2R)-1-methylazetidin-2-yl]methoxy]pyrazol-3-yl]pyrazolo[1,5-a]pyridin-2-amine] |
| < 0.847 nM | COc1nc(C)cc(Nc2cc3cc(-c4c(OC[C@H]5CCN5C)cnn4C)ccn3n2)n1 [Example 146, N-(2-methoxy-6-methyl-pyrimidin-4-yl)-5-[2-methyl-4-[[(2R)-1-methylazetidin-2-yl]methoxy]pyrazol-3-yl]pyrazolo[1,5-a]pyridin-2-amine] |
| 0.9 nM | COc1nnc(Nc2cc3cc(-c4c(OC[C@H]5CCN5C)cnn4C)ccn3n2)cc1C [Example 147, N-(6-methoxy-5-methyl-pyridazin-3-yl)-5-[2-methyl-4-[[(2R)-1-methylazetidin-2-yl]methoxy]pyrazol-3-yl]pyrazolo[1,5-a]pyridin-2-amine] |
| < 0.847 nM | Cc1cn2nc(Nc3cc4cc(-c5c(OC[C@H]6CCN6C)cnn5C)ccn4n3)ccc2n1 [Example 148, 2-methyl-N-[5-[2-methyl-4-[[(2R)-1-methylazetidin-2-yl]methoxy]pyrazol-3-yl]pyrazolo[1,5-a]pyridin-2-yl]imidazo[1,2-b]pyridazin-6-amine] |
| 2 nM | CN1CC[C@@H]1COc1cnn(C)c1-c1ccn2nc(Nc3ccc4nccn4n3)cc2c1 [Example 149, N-[5-[2-methyl-4-[[(2R)-1-methylazetidin-2-yl]methoxy]pyrazol-3-yl]pyrazolo[1,5-a]pyridin-2-yl]imidazo[1,2-b]pyridazin-6-amine] |
| 7.6 nM | CN1CC[C@@H]1COc1cnn(C)c1-c1ccn2nc(Nc3cnc(C(F)(F)F)cn3)cc2c1 [Example 150, 5-[2-methyl-4-[[(2R)-1-methylazetidin-2-yl]methoxy]pyrazol-3-yl]-N-[5-(trifluoromethyl)pyrazin-2-yl]pyrazolo[1,5-a]pyridin-2-amine] |
| < 0.847 nM | Cc1cc(Nc2cc3cc(-c4c(OC[C@H]5CCN5C)cnn4C)ccn3n2)nc(C(C)(C)C)n1 [Example 151, N-(2-tert-butyl-6-methyl-pyrimidin-4-yl)-5-[2-methyl-4-[[(2R)-1-methylazetidin-2-yl]methoxy]pyrazol-3-yl]pyrazolo[1,5-a]pyridin-2-amine] |
| < 0.847 nM | Cc1cc(Nc2cc3cc(-c4c(OC[C@H]5CCN5C)cnn4C)ccn3n2)nn(C)c1=O [Example 152, 2,4-dimethyl-6-[[5-[2-methyl-4-[[(2R)-1-methylazetidin-2-yl]methoxy]pyrazol-3-yl]pyrazolo[1,5-a]pyridin-2-yl]amino]pyridazin-3-one] |
| < 0.847 nM | Cc1cc(Nc2cc3cc(-c4c(OC[C@H]5CCN5C)cnn4C)ccn3n2)nc(CC2CC2)n1 [Example 153, N-[2-(cyclopropylmethyl)-6-methyl-pyrimidin-4-yl]-5-[2-methyl-4-[[(2R)-1-methylazetidin-2-yl]methoxy]pyrazol-3-yl]pyrazolo[1,5-a]pyridin-2-amine] |
| 7.9 nM | COc1cnc(Nc2cc3cc(-c4c(OC[C@H]5CCN5C)cnn4C)ccn3n2)cn1 [Example 154, N-(5-methoxypyrazin-2-yl)-5-[2-methyl-4-[[(2R)-1-methylazetidin-2-yl]methoxy]pyrazol-3-yl]pyrazolo[1,5-a]pyridin-2-amine] |
| 6.6 nM | CN1CC[C@@H]1COc1cnn(C)c1-c1ccn2nc(Nc3cnc(OC(F)F)cn3)cc2c1 [Example 155, N-[5-(difluoromethoxy)pyrazin-2-yl]-5-[2-methyl-4-[[(2R)-1-methylazetidin-2-yl]methoxy]pyrazol-3-yl]pyrazolo[1,5-a]pyridin-2-amine] |
| 47.7 nM | CN1CC[C@@H]1COc1cnn(C)c1-c1ccn2nc(NC(=O)[C@H]3C[C@H]3c3ccccc3)cc2c1 [Example 158, (1S,2R)—N-[5-[2-methyl-4-[[(2R)-1-methylazetidin-2-yl]methoxy]pyrazol-3-yl]pyrazolo[1,5-a]pyridin-2-yl]-2-phenyl-cyclopropanecarboxamide] |
| 2.5 nM and 3.6 nM | CCN1CC[C@@H]1COc1cnn(C)c1-c1ccn2nc(Nc3cnc(C(F)(F)F)cn3)cc2c1 [Example 160, 5-[4-[[(2R)-1-ethylazetidin-2-yl]methoxy]-2-methyl-pyrazol-3-yl]-N-[5-(trifluoromethyl)pyrazin-2-yl]pyrazolo[1,5-a]pyridin-2-amine] |
| < 0.847 nM | CCN1CC[C@@H]1COc1cnn(C)c1-c1ccn2nc(Nc3ccnc(C(F)(F)F)n3)cc2c1 [Example 161, 5-[4-[[(2R)-1-ethylazetidin-2-yl]methoxy]-2-methyl-pyrazol-3-yl]-N-[2-(trifluoromethyl)pyrimidin-4-yl]pyrazolo[1,5-a]pyridin-2-amine] |
| < 0.847 nM | CCN1CC[C@@H]1COc1cnn(C)c1-c1ccn2nc(Nc3cc(C(F)(F)F)nc(C)n3)cc2c1 [Example 162, 5-[4-[[(2R)-1-ethylazetidin-2-yl]methoxy]-2-methyl-pyrazol-3-yl]-N-[2-methyl-6-(trifluoromethyl)pyrimidin-4-yl]pyrazolo[1,5-a]pyridin-2-amine] |
| 2.2 nM | CCN1CC[C@@H]1COc1cnn(C)c1-c1ccn2nc(Nc3ccnc(OC)n3)cc2c1 [Example 163, 5-[4-[[(2R)-1-ethylazetidin-2-yl]methoxy]-2-methyl-pyrazol-3-yl]-N-(2-methoxypyrimidin-4-yl)pyrazolo[1,5-a]pyridin-2-amine] |
| 1.5 nM | CCN1CC[C@@H]1COc1cnn(C)c1-c1ccn2nc(Nc3cc(C(F)(F)F)ncn3)cc2c1 [Example 164, 5-[4-[[(2R)-1-ethylazetidin-2-yl]methoxy]-2-methyl-pyrazol-3-yl]-N-[6-(trifluoromethyl)pyrimidin-4-yl]pyrazolo[1,5-a]pyridin-2-amine] |
